Drawing on patent US6358973B1, “Benzazine derivatives as phosphodiesterase 4 inhibitors” (Zambon Group S.p.A., priority 1998, dated 2002), this text covers melting point and IC50 for six molecules.

A word on the melting point: it is the temperature of the solid-liquid transition. As usually defined, the IC50 is the concentration at which inhibition is half-maximal.

Series [1] concerns the target PDE 4 enzyme. Description: PDE 4 enzyme inhibition (SPA, Amersham kit). In kind it is biochemical. As to conditions: PDE 4 purified from human PMNs; cAMP 1 μM; 40 minutes at 30° C.; 9 concentrations. An excerpt: Evaluation of the PDE 4 Enzyme Inhibition a) Purification of Human Polymorphonucleate Leukocytes
The polymorphonucleate leukocytes (PMNs) were isolated from peripheral blood of healthy volunteers according to what described by Boyum A., Scand. J. Immunol., 1976, 5th suppl., 9). Shortly, the isolation of the PMNs was effected by Ficoll-Paque gradient centrifugation followed by sedimentation on dextrane and the erythrocyte contamination was eliminated by hypotonic lysis. […]
b) PDE 4 Enzyme Purification
The human PMNs were re-suspended in TRIS/HCl buffer (10 mM pH 7.8) containing MgCl2 (5 mM), EGTA (4 mM), mercaptoethanol (5 mM), TRITON-X100 (1%), pepstatin A (1 μM), PMSF (100 μM) and leupeptin (1 μM), and homogenised by Polytron. […]
The enzyme activity was evaluated with an Amersham kit based on the SPA (Scintillation Proximity Assay) technique. […] The radioactivity due to the particles was measured in a β-emitting counter. The results are expressed as percent activity versus the control present in each experiment. The IC50 values were calculated over 9 concentrations equidistant in logarithmic scale using a 4-parameters logistic function by software.

Take `COc1ccc2c(c1)C(CC1CCCC1)CN=C2Cc1c(Cl)cncc1Cl.Cl.Cl` (stereo not drawn): the melting point is 162 to 164 °C (dec.).
On to `COc1cccc2c1C(Cc1c(Cl)cncc1Cl)=NCC2CC1CCCC1.Cl.Cl` (stereo not drawn), for which the melting point is 189 to 190 °C (dec.).
Turning to `COc1ccc2c(c1)C(CCCCCCc1ccccc1)CN=C2Cc1c(Cl)cncc1Cl.Cl.Cl` (stereo not drawn), the melting point was 135 to 137 °C (dec.).
Still for that read-out and setting: as for `COc1cccc2c1C(Cc1c(Cl)cncc1Cl)=NCC2CCCCCCc1ccccc1.Cl.Cl` (stereo not drawn), the figure is 117 to 119 °C (dec.).
In turn, `COc1ccc2c(c1CC1CCCC1)CCN=C2Cc1c(Cl)cncc1Cl` [Compound 20, 5-Cyclopentylmethyl-1-(3,5-dichloro-pyridin-4-ylmethyl)-6-methoxy-3,4-dihydro-isoquinoline] returned a half-maximal inhibitory concentration (IC50) in series [1] of 35.9 ± 4.7 nM.
`COc1ccc2c(c1)c(-c1ccccc1)cc(=O)n2Cc1c(Cl)cncc1Cl` [Compound 23, 1-(3,5-Dichloropyridin-4-ylmethyl)-6-methoxy-4-phenyl-1H-quinolin-2-one] returned a melting point of 191 to 192 °C.
